# Reference: paper PMC7166077, “A systematic strategy for estimating hERG block potency and its implications in a new cardiac safety paradigm” (Toxicology and Applied Pharmacology, 2020)
# Biological target: T1, hERG (Kv11.1 potassium channel) (Homo sapiens, UniProt Q12809)
# T1 construct: gene KCNH2
# Experiment: automated patch clamp, multi-site, Bayesian hierarchical model
# T1 sequence (Q12809 whole entry): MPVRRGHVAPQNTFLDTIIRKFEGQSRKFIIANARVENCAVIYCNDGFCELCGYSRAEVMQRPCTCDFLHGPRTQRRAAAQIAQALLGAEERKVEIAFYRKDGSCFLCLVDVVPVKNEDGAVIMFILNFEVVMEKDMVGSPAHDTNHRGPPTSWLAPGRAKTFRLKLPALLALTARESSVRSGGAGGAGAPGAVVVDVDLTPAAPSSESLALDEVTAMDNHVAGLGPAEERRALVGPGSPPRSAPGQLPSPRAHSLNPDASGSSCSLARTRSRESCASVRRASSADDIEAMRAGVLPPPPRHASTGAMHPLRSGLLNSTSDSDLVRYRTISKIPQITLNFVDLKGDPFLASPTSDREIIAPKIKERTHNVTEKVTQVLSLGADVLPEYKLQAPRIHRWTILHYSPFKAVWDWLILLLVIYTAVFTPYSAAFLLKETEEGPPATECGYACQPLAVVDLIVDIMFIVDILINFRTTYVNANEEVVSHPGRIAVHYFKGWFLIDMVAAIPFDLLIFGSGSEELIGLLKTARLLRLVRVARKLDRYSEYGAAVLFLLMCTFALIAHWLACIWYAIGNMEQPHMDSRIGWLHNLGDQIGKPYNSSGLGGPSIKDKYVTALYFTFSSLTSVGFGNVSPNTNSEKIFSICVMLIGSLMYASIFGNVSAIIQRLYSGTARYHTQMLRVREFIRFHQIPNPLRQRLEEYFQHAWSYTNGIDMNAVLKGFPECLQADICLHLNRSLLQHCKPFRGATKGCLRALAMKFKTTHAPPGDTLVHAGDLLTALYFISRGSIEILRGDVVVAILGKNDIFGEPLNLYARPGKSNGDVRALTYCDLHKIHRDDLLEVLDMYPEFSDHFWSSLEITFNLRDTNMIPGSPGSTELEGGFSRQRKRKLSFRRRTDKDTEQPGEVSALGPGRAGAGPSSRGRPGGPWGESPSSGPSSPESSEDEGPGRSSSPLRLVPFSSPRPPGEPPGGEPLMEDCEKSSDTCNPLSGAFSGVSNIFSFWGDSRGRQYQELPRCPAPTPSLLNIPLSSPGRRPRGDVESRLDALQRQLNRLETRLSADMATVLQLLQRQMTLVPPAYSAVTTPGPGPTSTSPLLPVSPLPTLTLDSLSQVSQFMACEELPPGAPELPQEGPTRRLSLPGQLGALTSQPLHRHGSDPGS
compound,measurement,value
CCOC(=O)C1=C(C)NC(C)=C(C(=O)OC)C1c1cccc([N+](=O)[O-])c1 (stereo not shown) [nitrendipine],IC50,20 µM
